Values quoted from earlier work, collected in patent US10736894B2, “Methods of treating developmental syndromes with PDE10A inhibitors” (Ovid Therapeutics Inc., priority 2018, dated 2020).

Experiments:
[1] = 100 mg dose
[2] = single dose 3-1000 mg, volunteers

For COc1cn(-c2ccc(-n3cccn3)cc2F)nc(-c2ccnn2-c2ccccc2)c1=O [1-[2-fluoro-4-(1H-pyrazol-1-yl)phenyl]-5-methoxy-3-(1-phenyl-1H-pyrazol-5-yl)-pyridazin-4(1H)-one], the “deaths, serious adverse events, discontinuations due to adverse events” value (all dose cohorts 3-1000 mg) is given as “no deaths, serious adverse events, or discontinuations due to adverse events”, the “drug-related adverse event: orthostatic hypotension” value [2] is given as 9.1% and the “drug-related adverse event: orthostatic tachycardia” value [2] is given as 19.7%. The “drug-related adverse event: somnolence” value [2] was 33.3%, the oral bioavailability ([1]; fed conditions versus fasting) was “increased oral bioavailability” and the Tmax ([1]; fed conditions) was 6 h.
